Molecules are shown by their SMILES. Like-named read-outs stand apart in the source and are kept apart here.

The values below come from patent US8669291B2, “Phenyl substituted cycloalkylamines as monoamine reuptake inhibitors” (Sunovion Pharmaceuticals Inc., priority 2007, dated 2014).

Series [1] deals with T1, human serotonin (5-HT) reuptake transporter (Homo sapiens, UniProt P31645).
T1 construct: expressed in transfected cells
Nature of the series: functional uptake assay, human 5-HT reuptake transporter. It counts as cell-based. How it is done:
(§1) Compounds were tested for their inhibition of functional uptake of serotonin (5-HT), norepinephrine (NE), and dopamine (DA), in synaptosomes prepared from rat whole brain, hypothalamus, or corpus striatum, respectively, and/or using recombinant human transporters.

Series [2] has as its target T2, human norepinephrine (NE) reuptake transporter (Homo sapiens, UniProt P23975).
T2 construct: expressed in transfected cells
Nature of the series: functional uptake assay, human NE reuptake transporter. It counts as cell-based. The settings on record: read-out: NE IC50. On the procedure:
as §1

The target in series [3] is T3, human dopamine (DA) reuptake transporter (Homo sapiens, UniProt Q01959).
T3 construct: expressed in transfected cells
T3 sequence (Q01959 whole entry): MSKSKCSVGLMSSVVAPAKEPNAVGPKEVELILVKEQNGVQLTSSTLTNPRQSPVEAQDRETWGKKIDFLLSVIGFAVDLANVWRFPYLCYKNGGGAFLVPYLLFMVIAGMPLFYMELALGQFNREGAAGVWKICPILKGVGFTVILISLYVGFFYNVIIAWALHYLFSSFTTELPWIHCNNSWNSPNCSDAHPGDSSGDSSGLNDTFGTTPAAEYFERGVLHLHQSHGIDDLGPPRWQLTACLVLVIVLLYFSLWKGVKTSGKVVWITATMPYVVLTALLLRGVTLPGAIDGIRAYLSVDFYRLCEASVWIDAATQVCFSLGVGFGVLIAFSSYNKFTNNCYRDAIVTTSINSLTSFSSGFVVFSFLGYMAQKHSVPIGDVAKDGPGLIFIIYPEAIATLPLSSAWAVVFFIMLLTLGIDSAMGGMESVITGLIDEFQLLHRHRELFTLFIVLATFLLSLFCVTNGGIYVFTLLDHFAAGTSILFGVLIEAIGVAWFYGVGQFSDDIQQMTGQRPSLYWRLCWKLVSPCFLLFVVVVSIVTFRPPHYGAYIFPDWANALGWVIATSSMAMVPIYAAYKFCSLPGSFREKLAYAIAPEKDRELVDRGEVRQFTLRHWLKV
Nature of the series: functional uptake assay, human DA reuptake transporter. The series is classed as cell-based. How it is done:
as §1

Series [4] can be described thus: human metabolic stability (HLM t1/2). The series is classed as in vitro ADME. The conditions noted are these: human liver microsomes. From the text: 4b. In Vitro PK Data (Human Metabolic Stability, Inhibition of CYP450 Enzymes, Inhibition of HERG Current)
In general terms: Microsomes from liver hold many membrane-bound enzymes, among them those of drug oxidation.

The conditions of series [5]: in vivo; cited from earlier work.
For series [6], the target named is serotonin uptake sites (Homo sapiens, UniProt P31645). The settings on record: cited from earlier work.
Sequence of serotonin uptake sites (P31645 whole entry): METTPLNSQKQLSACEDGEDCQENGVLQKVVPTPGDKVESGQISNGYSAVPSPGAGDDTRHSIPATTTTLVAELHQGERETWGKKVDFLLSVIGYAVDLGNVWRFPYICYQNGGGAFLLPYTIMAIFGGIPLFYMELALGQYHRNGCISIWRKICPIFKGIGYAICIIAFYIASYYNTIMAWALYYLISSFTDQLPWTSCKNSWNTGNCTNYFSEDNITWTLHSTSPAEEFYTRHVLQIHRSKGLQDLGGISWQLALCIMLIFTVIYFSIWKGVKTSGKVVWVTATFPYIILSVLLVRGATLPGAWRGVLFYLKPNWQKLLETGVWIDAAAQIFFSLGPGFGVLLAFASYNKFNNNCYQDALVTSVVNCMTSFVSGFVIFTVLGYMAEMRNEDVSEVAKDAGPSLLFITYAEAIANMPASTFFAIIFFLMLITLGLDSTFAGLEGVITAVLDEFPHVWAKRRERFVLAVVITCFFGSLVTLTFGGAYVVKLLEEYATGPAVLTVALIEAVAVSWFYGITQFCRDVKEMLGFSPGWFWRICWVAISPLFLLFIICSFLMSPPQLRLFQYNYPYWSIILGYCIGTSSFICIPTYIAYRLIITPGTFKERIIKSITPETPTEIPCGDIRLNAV
Setting [7] is: Example 6 summary of selected in vitro data, read-out: 5-HT IC50.
[8] abbreviates: Example 6 summary of selected in vitro data.
Where [9] appears, read: Example 6 summary of selected in vitro data, read-out: DA IC50.
Where [10] appears, read: Example 4a, human reuptake transporter, read-out: 5-HT IC50.
The mark [11] stands for this setting: Example 4a, human reuptake transporter.
[12] abbreviates: Example 4a, human reuptake transporter, read-out: DA IC50.

T1 sequence (P31645 whole entry): as above
T2 sequence (P23975 whole entry): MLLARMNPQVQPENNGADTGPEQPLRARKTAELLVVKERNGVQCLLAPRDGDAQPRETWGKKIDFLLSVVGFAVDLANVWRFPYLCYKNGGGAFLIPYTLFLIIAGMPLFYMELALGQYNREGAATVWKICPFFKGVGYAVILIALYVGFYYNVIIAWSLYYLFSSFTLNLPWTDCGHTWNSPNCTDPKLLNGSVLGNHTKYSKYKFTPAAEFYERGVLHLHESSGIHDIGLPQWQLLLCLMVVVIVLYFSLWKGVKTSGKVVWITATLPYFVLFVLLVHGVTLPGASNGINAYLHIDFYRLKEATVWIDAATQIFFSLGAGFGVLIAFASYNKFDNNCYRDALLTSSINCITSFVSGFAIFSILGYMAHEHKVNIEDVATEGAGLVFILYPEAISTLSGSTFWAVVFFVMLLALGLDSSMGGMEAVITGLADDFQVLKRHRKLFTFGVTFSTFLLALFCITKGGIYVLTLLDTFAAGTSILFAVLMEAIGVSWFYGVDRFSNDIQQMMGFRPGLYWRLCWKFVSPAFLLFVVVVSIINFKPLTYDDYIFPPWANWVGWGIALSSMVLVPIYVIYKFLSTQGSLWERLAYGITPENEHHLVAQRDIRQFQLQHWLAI

For orientation: IC50 means the concentration that inhibits the measured activity by half. For `CNC[C@]1(C)CCCC[C@@]1(O)c1ccc(Cl)c(Cl)c1` [Compound 16 A/B], the 50% inhibitory concentration (IC50) is 1 to 2000 nM in series [1] (setting [7]), more than 5 µM in series [2] (setting [8]) and 10 to 200 nM in series [3] (setting [9]).
On to `NC[C@]1(F)CCCC[C@@]1(O)c1ccc(Cl)c(Cl)c1` [Compound 21 A/B], for which the IC50 in series [1] (read-out: 5-HT IC50 nM, Example 6 summary of selected in vitro data) is 1 to 2000 nM; in series [2] (setting [8]), more than 5 µM; in series [3] (read-out: DA IC50 nM, Example 6 summary of selected in vitro data), 10 to 200 nM.
The term half-life denotes the time needed for the level to fall by half in the phase considered. Read a low half-life as fast loss. For `CN(C)C[C@H]1CCCC[C@]1(O)c1ccc(Cl)c(Cl)c1` (single isomer, unassigned) [Compound 1, cis-1-(3,4-dichlorophenyl)-2-((dimethylamino)methyl)cyclohexanol], the IC50 lay in the range of 1 to 2000 nM in series [1] (setting [10]); 1 to 2000 nM in series [1] (setting [7]); 0.201 to 1 µM in series [2] (setting [11]); 0.201 to 1 µM in series [2] (setting [8]); 201 to 1000 nM in series [3] (setting [12]); 201 to 1000 nM in series [3] (setting [9]). Moreover, in series [4], the half-life lay within 0.417 to 2.92 h.
On to `NC[C@@H]1CCCC[C@@]1(O)c1ccc(Cl)c(Cl)c1` (relative stereo) [Compound 9, cis-2-(aminomethyl)-1-(3,4-dichlorophenyl)cyclohexanol], for which the IC50 in series [1] (setting [10]) is more than 10000 nM; in series [1] (setting [7]) it was more than 10000 nM; in series [2] (setting [11]), 1 to 5 µM; in series [2] (setting [8]), 1 to 5 µM; in series [3] (setting [12]), 10 to 200 nM; in series [3] (setting [9]), 10 to 200 nM.
Take `CN(C)C[C@]1(F)CCCC[C@@]1(O)c1ccc(Cl)c(Cl)c1` [Compound 23 A/B]: the IC50 was 2000 to 7000 nM in series [1] (setting [7]), more than 5 µM in series [2] (setting [8]) and 201 to 1000 nM in series [3] (setting [9]).
As for `NCC1CCCCC1(O)c1ccc(Cl)c(Cl)c1` (single isomer, unassigned) [Compound 8, cis-2-(aminomethyl)-1-(3,4-dichlorophenyl)cyclohexanol], the IC50 was 7000 to 10000 nM in series [1] (setting [10]); 7000 to 10000 nM in series [1] (setting [7]); more than 5 µM in series [2] (setting [11]); more than 5 µM in series [2] (setting [8]); 201 to 1000 nM in series [3] (setting [12]); 201 to 1000 nM in series [3] (setting [9]).
For the compound `C[C@@]1(CN)CCCC[C@@]1(O)c1ccc(Cl)c(Cl)c1` [Compound 15 A/B], the IC50 in series [1] (setting [7]) is 2000 to 7000 nM; in series [2] (setting [8]), more than 5 µM; in series [3] (setting [9]) it was 201 to 1000 nM.
As for `Clc1ccc([C@@]23CNC[C@@H]2C3)cc1Cl` (single isomer, unassigned) [DOV 21,947, (+)-1-(3,4-dichlorophenyl)-3-azabicyclo[3.1.0]hexane], the “immobility in the tail suspension test” value in series [5] is listed as “dose-dependent reduction in immobility”. Besides, the “affinity for the serotonin uptake sites versus the racemic compound” value in series [6] is listed as “significantly greater affinity”.
`CN(C)C[C@]1(C)CCCC[C@@]1(O)c1ccc(Cl)c(Cl)c1` [Compound 17 A/B]: the IC50 in series [1] (setting [7]) was 2000 to 7000 nM; in series [2] (setting [8]), more than 5 µM; in series [3] (setting [9]), 201 to 1000 nM.
